Type in all cases: cell-based
One experiment addresses T1, rat P2X4 WT (rWT) (Rattus norvegicus, UniProt P51577).
T1 construct: rat P2X4 (NP_113782.1; WT and mutants) were transcribed from pGEMHE plasmids; expressed in transfected cells; host or cells: Xenopus laevis oocytes injected with cRNA from pGEMHE
T1 sequence (P51577 1-388): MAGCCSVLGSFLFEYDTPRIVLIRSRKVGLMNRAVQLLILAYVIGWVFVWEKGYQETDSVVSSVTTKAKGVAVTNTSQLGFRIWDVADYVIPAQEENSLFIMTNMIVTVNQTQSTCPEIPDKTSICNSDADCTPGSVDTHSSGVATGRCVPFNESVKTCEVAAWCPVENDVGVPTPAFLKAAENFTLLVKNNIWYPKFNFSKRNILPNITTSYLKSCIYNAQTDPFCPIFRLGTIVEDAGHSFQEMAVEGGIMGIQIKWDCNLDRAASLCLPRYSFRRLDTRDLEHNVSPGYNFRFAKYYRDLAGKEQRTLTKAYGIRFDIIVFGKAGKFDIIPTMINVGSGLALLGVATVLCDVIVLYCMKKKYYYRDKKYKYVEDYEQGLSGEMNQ
The experiment can be described thus: Two-Electrode Voltage Clamp recording, rat P2X4 WT in Xenopus oocytes. The conditions noted are these: for nucleotide-evoked currents: GTP and UTP applied at 3 mM (Fig. S4); for EC50: oocytes held at −70 mV, n = 9, read-out: EC50 (evoked current, dose-response). From the text: (§1) To further investigate the functional roles of the residues involved in the base recognition, T189 and R143, we performed an electrophysiological analysis with the rat P2X4, since its electrophysiological properties have been well established. We first assessed the functional role of T189 in zfP2X4 and introduced mutations at the equivalent residue of the rat P2X4 to create three mutants (^rT186A, ^rT186V and ^rT186S; the superscript “r” means rat P2X4). […] Therefore, we examined the ^rWT and the ^rT186S mutant.
(§2) Figure 4 Current responses of ^rWT, ^rT186S, ^rH140A and ^rH140R evoked by ATP and CTP. (A,B) Representative currents of ^rWT evoked by ATP (1–300 μM) (A) and CTP (10–10,000 μM) (B). (C,D) Representative currents of the ^rT186S mutant evoked by ATP (1–300 μM) (C) and CTP (10–10,000 μM) (D). (E,F) Representative currents of the ^rH140A mutant evoked by ATP (1–300 μM) (E) and CTP (10–10,000 μM) (F). (G,H) Representative currents of the ^rH140R mutant evoked by ATP (1–300 μM) (G) and CTP (10–10,000 μM) (H). (I–K) Concentration-response curves evoked by ATP and CTP in the ^rWT and the ^rT186S mutant (I), in the ^rWT and the ^rH140A mutant (J) and in the ^rWT and the ^rH140R mutant (K). Symbols are defined in the figure, and bars depict means ± SEM (n = 7–9).
(§3) The cRNAs encoding zebrafish P2X4 (NP_705939; WT) and rat P2X4 (NP_113782.1; WT and mutants) were transcribed from pGEMHE plasmids, using a mMessage mMachine® T7 ULTRA kit (Ambion, Huntingdon, Cambridgeshire, UK). Xenopus laevis oocytes were prepared, and RNA (100 ng for zebrafish P2X4, and 20 ng for rat P2X4) was injected into the oocytes. The oocytes were incubated at 18 °C in Barth’s solution, containing 88 mM NaCl, 1 mM KCl, 2.4 mM NaHCO3, 10 mM HEPES, 0.33 mM Ca(NO3)2, 0.41 mM CaCl2, and 0.82 mM MgSO4, pH 7.4, supplemented with 50 μg/ml gentamicin, and were used for recording after 2–3 days. Recording solutions contained 100 mM NaCl, 5 mM HEPES, 2 mM MgCl2, pH 7.3, and nucleoside triphosphates (ATP, CTP, GTP, and UTP), which were freshly prepared each day. Oocytes were held at −70 mV with a bath-clamp amplifier (OC-725C, Warner Co., USA), and macroscopic currents were recorded and analyzed using the pClamp 10 software (Molecular Devices, USA)[33][34]. We measured n = 4 for zebrafish P2X4 data and n = 7–9 for rat P2X4 data.

The target of a further experiment is T2, rat P2X4 rT186S mutant (Rattus norvegicus, UniProt P51577, T186S).
T2 construct: rat P2X4 (NP_113782.1; WT and mutants) were transcribed from pGEMHE plasmids; expressed in transfected cells; host or cells: Xenopus laevis oocytes injected with cRNA from pGEMHE
T2 sequence (P51577 1-388 T186S): T1 sequence (P51577 1-388) with T186S
In words: Two-Electrode Voltage Clamp recording, rat P2X4 T186S mutant in Xenopus oocytes. The conditions noted are these: for nucleotide-evoked currents: GTP and UTP applied at 3 mM (Fig. S4); for EC50: oocytes held at −70 mV, n = 9, read-out: EC50 (evoked current, dose-response).
Text: as §1, §2, §3
In general terms: Two-electrode voltage clamp holds a large cell at a set potential and records current.

For the next experiment, the target named is T3, rat P2X4 rH140A mutant (Rattus norvegicus, UniProt P51577, H140A).
T3 construct: rat P2X4 (NP_113782.1; WT and mutants) were transcribed from pGEMHE plasmids; expressed in transfected cells; host or cells: Xenopus laevis oocytes injected with cRNA from pGEMHE
T3 sequence (P51577 1-388 H140A): T1 sequence (P51577 1-388) with H140A
The experiment can be described thus: Two-Electrode Voltage Clamp recording, rat P2X4 H140A mutant in Xenopus oocytes. The conditions noted are these: for nucleotide-evoked currents / EC50: rH140A mutant; for nucleotide-evoked currents: 3 mM GTP, 3 mM UTP (Fig. S4); for fold reduced affinity as compared with rWT: rH140A mutant vs rWT, from EC50; for EC50: oocytes held at −70 mV, n = 7-8, read-out: EC50 (evoked current, dose-response). On the procedure: as §2
Next we assessed the functional role of R143 in zfP2X4, as its side chain forms a hydrogen bond with the cytosine ring in the CTP-bound structure (Fig. 3A,B). This arginine residue is substituted with a similar basic residue, histidine (^rH140), in rat P2X4 (Fig. 3E).
as §3

Positions count from the first letter of the chain named.

With `Nc1nc2c(ncn2[C@@H]2O[C@H](COP(=O)(O)OP(=O)(O)OP(=O)(O)O)[C@@H](O)[C@H]2O)c(=O)[nH]1` [GTP], the nucleotide-evoked currents result is “no GTP- and UTP-evoked currents were detected” on rat P2X4 WT (rWT); “no GTP- and UTP-evoked currents were detected” on rat P2X4 rT186S mutant; “no GTP- and UTP-evoked currents were detected” on rat P2X4 rH140A mutant.

As to `Nc1ccn([C@@H]2O[C@H](COP(=O)(O)OP(=O)(O)OP(=O)(O)O)[C@@H](O)[C@H]2O)c(=O)n1` [CTP], on rat P2X4 WT (rWT), the nucleotide-evoked currents result was “ATP- and CTP-evoked currents were detected”; the EC50 (commonly the concentration needed to bring the measured effect to its halfway point) was determined as 564 ± 170 µM. Moreover, at rat P2X4 rT186S mutant, the nucleotide-evoked currents entry was “ATP- and CTP-evoked currents were detected”; the EC50 turned out to be 557 ± 120 µM. Also, at rat P2X4 rH140A mutant, the “fold reduced affinity as compared with rWT” value is approximately 14 fold and the 50% effective concentration (EC50) stood at 7990 µM.

Turning to `O=c1ccn([C@@H]2O[C@H](COP(=O)(O)OP(=O)(O)OP(=O)(O)O)[C@@H](O)[C@H]2O)c(=O)[nH]1` [UTP], the nucleotide-evoked currents entry was “no GTP- and UTP-evoked currents were detected” on rat P2X4 WT (rWT); “no GTP- and UTP-evoked currents were detected” on rat P2X4 rT186S mutant; “no GTP- and UTP-evoked currents were detected” on rat P2X4 rH140A mutant.

As for `Nc1ncnc2c1ncn2[C@@H]1O[C@H](COP(=O)(O)OP(=O)(O)OP(=O)(O)O)[C@@H](O)[C@H]1O` [ATP, Adenosine 5-triphosphate], at rat P2X4 WT (rWT), the nucleotide-evoked currents entry was “ATP- and CTP-evoked currents were detected”; the 50% effective concentration (EC50) was 16.2 ± 5.4 µM. Moreover, at rat P2X4 rT186S mutant, the nucleotide-evoked currents result was “ATP- and CTP-evoked currents were detected”; the EC50 is 29.9 ± 3.1 µM. For the same compound, at rat P2X4 rH140A mutant, the “fold reduced affinity as compared with rWT” value is listed as “about 2.5 fold” and the EC50 is 42.8 ± 6.3 µM.

For the origin of these results see PMC5362899, “Structural insights into the nucleotide base specificity of P2X receptors” (Scientific Reports, 2017).
